# Entries after “also recorded” stand apart in the source; their conditions may differ.
# Key:
# [1] = Study 2: biodistribution in healthy New Zealand rabbits (gamma counting of dissected organs); type: in vivo; conditions: for Uptake ratio Cartilage/Bone / Uptake ratio Cartilage/Muscle / Articular Cartilage / Bile / Blood / Bone / Bone Marrow / Kidney / Liver / Lung / Muscle / Spleen / Thyroid / Urine: i.v.
# Description: Biodistribution were determined in 36 healthy New Zealand rabbits (18 males and 18 females, 14 weeks old, 3.5 kg weight, Charles River, France), being randomly divided into two groups: • One group receiving ^99mTc-NTP 15-5: 18±3 MBq/animal for biodistribution; • One group receiving ^64Cu-2: 17±4 MBq/animal for biodistribution.
# The compounds were i.v. administered to anesthetized animals (ketamine/xylazine by intramuscular route) in the marginal ear vein.
# At selected time points after injection (15 min, 1 h, 3 h, 6 h, 20 h after injection), animals (3 animals/time point/compound) were sacrificed by a lethal i.v. dose of pentobarbital. Organs of interest were dissected, weighed and their radioactivity measured using a gamma counter (Model 1480 Wizard, Perkin Elmer Life Sciences, Boston, USA). After radioactive decay correction, results were expressed for each organ as % injected dose per gram (% ID/g) and averaged per group and per time point.
# [2] = Biodistribution in healthy and SRC bearing rats at 1 h after i.v. injection of radiolabelled compounds; type: in vivo; conditions: mean ± SD (n = 3)
# Description: Quantitative biodistribution of radiolabelled compounds was determined in rats: healthy animals as well as rats with primary grade II orthotopic chondrosarcoma at stage Day-30 after induction. The chondrosarcoma model was the Swarm Rat Chondrosarcoma model (SRC) implanted in paratibial location. Radiolabelled compounds (5-10 Mbq/animal) were i.v. administered in the caudal vein of animals being anesthetized of mixture of ketamine (58 mg/kg i.p.) (Imalgéne 500®) and xylazine (6 mg/kg i.p.) (Rompun® 2%, Bayer, France). One hour after injection, animals were then sacrificed by CO2 inhalation, dissected and organs of interest removed, weighed and their radioactivity counted using a gamma counter (Model 1480 Wizard, Perkin Elmer Life Sciences, Boston, USA). Organs collected were blood, muscle, knee, kidneys, liver, thoracic ribs, bladder for both healthy and chondrosarcoma bearing rats. For SRC animals, tumour was also sampled. After radioactive decay correction, results were expressed for each organ as % injected dose per gram (% ID/g) and averaged per group.
compound,measurement,setting,value
"CC[N+](CC)(CC)CCCN1CCNCCNCCNCCNCC1.[64Cu+2] [^64Cu-2, [^64Cu]—N,N,N-Triethyl-3-(1,4,7,10,13-pentaazacyclopentadecan-1-yl)propan-1-aminium copper(II)]",Accumulation in kidneys compared to ^99mTc-NTP 15-5,[1],significantly higher
same,Cartilage/muscle and cartilage/Bone ratios compared to ^99mTc-NTP 15-5,[1],higher
same,Duration of liver accumulation compared to ^99mTc-NTP 15-5,[1],shorter
same,Accumulation in cartilage (onset),[1]; as early as 15 min p.i.,rapidly accumulate
same,Uptake into the cartilages compared to ^99mTc-NTP 15-5,[1]; each time investigated,faster and higher uptake; also recorded: higher levels
same,Uptake ratio Cartilage/Bone,[1]; 15 min,120
same,Uptake ratio Cartilage/Muscle,[1]; 15 min,282
same,Articular Cartilage,[1]; 15 min after injection,8.46 ± 6.18 % ID/g
same,Bile,[1]; 15 min after injection,0.07 ± 0.04 % ID/g
same,Blood,[1]; 15 min after injection,0.31 ± 0.17 % ID/g
same,Bone,[1]; 15 min after injection,0.07 ± 0.02 % ID/g
same,Bone Marrow,[1]; 15 min after injection,0.08 ± 0.04 % ID/g
same,Kidney,[1]; 15 min after injection,0.65 ± 0.47 % ID/g
same,Liver,[1]; 15 min after injection,0.11 ± 0.03 % ID/g
same,Lung,[1]; 15 min after injection,0.23 ± 0.14 % ID/g
same,Muscle,[1]; 15 min after injection,0.03 ± 0.02 % ID/g
same,Spleen,[1]; 15 min after injection,0.11 ± 0.08 % ID/g
same,Thyroid,[1]; 15 min after injection,0.11 ± 0.08 % ID/g
same,Urine,[1]; 15 min after injection,1.51 ± 2.22 % ID/g
same,Uptake ratio Cartilage/Bone,[1]; 1 h,484
same,Uptake ratio Cartilage/Muscle,[1]; 1 h,484
same,Articular Cartilage,[1]; 1 h after injection,4.81 ± 1.16 % ID/g
same,Bile,[1]; 1 h after injection,0.03 ± 0.02 % ID/g
same,Blood,[1]; 1 h after injection,0.08 ± 0.02 % ID/g
same,Bone,[1]; 1 h after injection,0.01 ± 0.00 % ID/g
same,Bone Marrow,[1]; 1 h after injection,0.03 ± 0.01 % ID/g
same,Kidney,[1]; 1 h after injection,0.26 ± 0.07 % ID/g
same,Liver,[1]; 1 h after injection,0.04 ± 0.01 % ID/g
same,Lung,[1]; 1 h after injection,0.07 ± 0.02 % ID/g
same,Muscle,[1]; 1 h after injection,0.01 ± 0.00 % ID/g
same,Spleen,[1]; 1 h after injection,0.03 ± 0.01 % ID/g
same,Thyroid,[1]; 1 h after injection,0.03 ± 0.01 % ID/g
same,Urine,[1]; 1 h after injection,1.69 ± 2.14 % ID/g
same,Articular Cartilage,[1]; 3 h after injection,2.31 ± 0.32 % ID/g
same,Bile,[1]; 3 h after injection,0.11 ± 0.17 % ID/g
same,Blood,[1]; 3 h after injection,0.02 ± 0.00 % ID/g
same,Bone,[1]; 3 h after injection,0.01 ± 0.00 % ID/g
same,Bone Marrow,[1]; 3 h after injection,0.01 ± 0.00 % ID/g
same,Kidney,[1]; 3 h after injection,0.22 ± 0.01 % ID/g
same,Liver,[1]; 3 h after injection,0.02 ± 0.00 % ID/g
same,Lung,[1]; 3 h after injection,0.03 ± 0.00 % ID/g
same,Muscle,[1]; 3 h after injection,0.00 ± 0.00 % ID/g
same,Spleen,[1]; 3 h after injection,0.02 ± 0.00 % ID/g
same,Thyroid,[1]; 3 h after injection,0.04 ± 0.05 % ID/g
same,Urine,[1]; 3 h after injection,0.92 ± 0.63 % ID/g
same,Articular Cartilage,[1]; 6 h after injection,1.00 ± 1.02 % ID/g
same,Bile,[1]; 6 h after injection,0.02 ± 0.02 % ID/g
same,Blood,[1]; 6 h after injection,0.02 ± 0.02 % ID/g
same,Bone,[1]; 6 h after injection,0.00 ± 0.00 % ID/g
same,Bone Marrow,[1]; 6 h after injection,0.01 ± 0.01 % ID/g
same,Kidney,[1]; 6 h after injection,0.26 ± 0.14 % ID/g
same,Liver,[1]; 6 h after injection,0.02 ± 0.02 % ID/g
same,Lung,[1]; 6 h after injection,0.02 ± 0.02 % ID/g
same,Muscle,[1]; 6 h after injection,0.00 ± 0.00 % ID/g
same,Spleen,[1]; 6 h after injection,0.02 ± 0.02 % ID/g
same,Thyroid,[1]; 6 h after injection,0.00 ± 0.00 % ID/g
same,Urine,[1]; 6 h after injection,6.90 ± 7.93 % ID/g
same,Articular Cartilage,[1]; 20 h after injection,0.10 ± 0.02 % ID/g
same,Bile,[1]; 20 h after injection,0.01 ± 0.00 % ID/g
same,Blood,[1]; 20 h after injection,0.00 ± 0.00 % ID/g
same,Bone,[1]; 20 h after injection,0.00 ± 0.00 % ID/g
same,Bone Marrow,[1]; 20 h after injection,0.00 ± 0.00 % ID/g
same,Kidney,[1]; 20 h after injection,0.06 ± 0.01 % ID/g
same,Liver,[1]; 20 h after injection,0.00 ± 0.00 % ID/g
same,Lung,[1]; 20 h after injection,0.00 ± 0.00 % ID/g
same,Muscle,[1]; 20 h after injection,0.00 ± 0.00 % ID/g
same,Spleen,[1]; 20 h after injection,0.01 ± 0.00 % ID/g
same,Thyroid,[1]; 20 h after injection,0.00 ± 0.00 % ID/g
same,Urine,[1]; 20 h after injection,0.25 ± 0.22 % ID/g
same,Urinary elimination,[1]; indicated by accumulation in kidneys,high/rapid
same,In vivo stability (release of ^64Cu from transchelation or transmetalation negligible),[1]; inferred from liver uptake,stable
same,Tumor,[2]; SRC (Swarm Rat Chondrosarcoma) bearing rats,3.5 ± 0.5 % ID/g
same,Articular Cartilage,[2]; healthy and SRC bearing rats,2.6 ± 1.1 % ID/g
same,Bladder,[2]; healthy and SRC bearing rats,62.2 ± 17.6 % ID/g
same,Blood,[2]; healthy and SRC bearing rats,0.1 ± 0.05 % ID/g
same,Kidney,[2]; healthy and SRC bearing rats,16.4 ± 6.6 % ID/g
same,Muscle,[2]; healthy and SRC bearing rats,0.4 ± 0.3 % ID/g
